In the supplement of paper PMC5908809:

What was measured:
[1] = system: normal NK cells expanded with K562-aAPC; experiment: percent inhibition of viability; higher = more inhibition; conditions: 72 h, IL-2 2.5 ng/mL
Protocol: (§1)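 Drug sensitivity and resistance testing on K562-aAPC-expanded normal NK cells: 5 concentrations (10-fold steps over a 10,000-fold range), 72 h at 37 °C, viability by CellTiter-Glo normalised to DMSO and benzethonium chloride controls; DSS from the fitted curve.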

DERL-7 (IL-2 2.5 ng/mL) [2] = experiment: as above; conditions: 72 h
IMC-1 (IL-2 20 ng/mL) [3] = experiment: as above; conditions: 72 h
KAI3 (IL-2 2.5 ng/mL) [4] = experiment: as above; conditions: 72 h
KHYG-1 (IL-2 2.5 ng/mL) [5] = experiment: as above; conditions: 72 h
NK-92 (IL-2 2.5 ng/mL) [6] = experiment: as above; conditions: 72 h
NK-YS (IL-2 2.5 ng/mL) [7] = experiment: as above; conditions: 72 h
NKL (IL-2 2.5 ng/mL) [8] = experiment: as above; conditions: 72 h
SNK-6 (IL-2 2.5 ng/mL) [9] = experiment: as above; conditions: 72 h
YT (IL-2 2.5 ng/mL) [10] = experiment: as above; conditions: 72 h
[11] = system: normal primary NK cells, pool 1 (3 donors) (IL-2 2.5 ng/mL); experiment: as above; conditions: 72 h
[12] = system: normal primary NK cells, pool 1 (3 donors), resting (IL-2 0 ng/mL); experiment: as above; conditions: 72 h
[13] = system: normal primary NK cells, pool 2 (3 donors) (IL-2 2.5 ng/mL); experiment: as above; conditions: 72 h
[14] = system: normal primary NK cells, pool 3 (3 donors) (IL-2 2.5 ng/mL); experiment: as above; conditions: 72 h
[15] = system: normal NK cells expanded with K562-aAPC; experiment: drug sensitivity score (DSS) (DSS units); higher = more sensitive; extreme values may be limits of the assay; conditions: 72 h; IL-2 2.5 ng/mL
Protocol: as §1

DERL-7 (IL-2 2.5 ng/mL) [16] = experiment: as above; conditions: 72 h
IMC-1 (IL-2 20 ng/mL) [17] = experiment: as above; conditions: 72 h
KAI3 (IL-2 2.5 ng/mL) [18] = experiment: as above; conditions: 72 h
KHYG-1 (IL-2 2.5 ng/mL) [19] = experiment: as above; conditions: 72 h
NK-92 (IL-2 2.5 ng/mL) [20] = experiment: as above; conditions: 72 h
NK-YS (IL-2 2.5 ng/mL) [21] = experiment: as above; conditions: 72 h
NKL (IL-2 2.5 ng/mL) [22] = experiment: as above; conditions: 72 h
SNK-6 (IL-2 2.5 ng/mL) [23] = experiment: as above; conditions: 72 h
YT (IL-2 2.5 ng/mL) [24] = experiment: as above; conditions: 72 h
[25] = system: normal primary NK cells, pool 1 (3 donors) (IL-2 2.5 ng/mL); experiment: as above; conditions: 72 h
[26] = system: normal primary NK cells, pool 1 (3 donors), resting (IL-2 0 ng/mL); experiment: as above; conditions: 72 h
[27] = system: normal primary NK cells, pool 2 (3 donors) (IL-2 2.5 ng/mL); experiment: as above; conditions: 72 h
[28] = system: normal primary NK cells, pool 3 (3 donors) (IL-2 2.5 ng/mL); experiment: as above; conditions: 72 h

CC1(COc2ccc3c(c2)ncn3-c2ccc3cccc(N4CCC(N)CC4)c3n2)COC1 [Crenolanib] (max concentration tested 10000 nM)
percent inhibition of viability [%]
Conditions | 1 nM | 10 nM | 100 nM | 1000 nM | 10000 nM
DERL-7 (IL-2 2.5 ng/mL) [2] | 9.4 | 0.68 | 2.82 | 50.6 | 101
IMC-1 (IL-2 20 ng/mL) [3] | -5.33 | 1.06 | 0.71 | 5.26 | 101
KAI3 (IL-2 2.5 ng/mL) [4] | -3.85 | -6.78 | -18.2 | 10.7 | 102
KHYG-1 (IL-2 2.5 ng/mL) [5] | 2.86 | -0.81 | 5.22 | 18.1 | 99.8
NK-92 (IL-2 2.5 ng/mL) [6] | -3.46 | -7.66 | 2.06 | 50.1 | 102
NK-YS (IL-2 2.5 ng/mL) [7] | -3.61 | -4.32 | -1.2 | 16.6 | 101
NKL (IL-2 2.5 ng/mL) [8] | 12.4 | 0.04 | 22.6 | 53 | 103
SNK-6 (IL-2 2.5 ng/mL) [9] | 21.7 | 16.3 | 25 | 54.8 | 101
YT (IL-2 2.5 ng/mL) [10] | 4.17 | 1.51 | 11.1 | 24.2 | 99.7
[1] | -3.71 | -1.22 | -0.36 | 37.5 | 101
[11] | 2.4 | -5.93 | -3.03 | 22.4 | 100
[12] | -7.18 | -27.8 | -5.86 | -10.3 | 98.2
[13] | -14.1 | -6.62 | 2.71 | 32 | 99.4
[14] | -13.7 | -6.99 | 10.3 | 22.4 | 100

Conditions | drug sensitivity score
DERL-7 (IL-2 2.5 ng/mL) [16] | 11.6
IMC-1 (IL-2 20 ng/mL) [17] | 6.39
KAI3 (IL-2 2.5 ng/mL) [18] | 7.36
KHYG-1 (IL-2 2.5 ng/mL) [19] | 8.48
NK-92 (IL-2 2.5 ng/mL) [20] | 11.7
NK-YS (IL-2 2.5 ng/mL) [21] | 8.29
NKL (IL-2 2.5 ng/mL) [22] | 13.3
SNK-6 (IL-2 2.5 ng/mL) [23] | 15.2
YT (IL-2 2.5 ng/mL) [24] | 9.15
[15] | 10.6
[25] | 9.05
[26] | 4.78
[27] | 10.1
[28] | 9.06

CC(C)(C)c1nc(-c2cccc(NS(=O)(=O)c3c(F)cccc3F)c2F)c(-c2ccnc(N)n2)s1 [Dabrafenib] (max concentration tested 2500 nM)
percent inhibition of viability [%]
Conditions | 0.25 nM | 2.5 nM | 25 nM | 250 nM | 2500 nM
DERL-7 (IL-2 2.5 ng/mL) [2] | 3.06 | 5 | -0.47 | -3.32 | 34.5
IMC-1 (IL-2 20 ng/mL) [3] | -5.61 | -2.47 | -3.07 | -7.52 | 8.46
KAI3 (IL-2 2.5 ng/mL) [4] | -6.1 | 1.01 | 2.43 | -4.3 | 31.2
KHYG-1 (IL-2 2.5 ng/mL) [5] | -2.85 | -0.1 | 2.78 | 71.5 | 30.8
NK-92 (IL-2 2.5 ng/mL) [6] | -8.16 | -11.7 | -14.1 | -7.91 | -1.09
NK-YS (IL-2 2.5 ng/mL) [7] | -4.15 | -0.92 | 0.04 | -2.02 | 0.94
NKL (IL-2 2.5 ng/mL) [8] | -14.1 | -19.1 | -20.9 | -29.2 | -29.9
SNK-6 (IL-2 2.5 ng/mL) [9] | -5.34 | 1.84 | -12.1 | 0.17 | 0
YT (IL-2 2.5 ng/mL) [10] | -0.07 | -0.32 | 0.19 | 3.06 | 16.2
[1] | -3.8 | -9.82 | -8.95 | -1.61 | 6.4
[11] | -7.46 | -6.18 | -4.85 | -3.22 | 3.89
[12] | -10.3 | -11.7 | 7.48 | 10 | 45
[13] | -9.64 | -5.28 | -9.79 | -4.67 | -5.57
[14] | -9.2 | -8.52 | -4.83 | -5.01 | -0.02

Conditions | drug sensitivity score
DERL-7 (IL-2 2.5 ng/mL) [16] | 1.38
IMC-1 (IL-2 20 ng/mL) [17] | 0
KAI3 (IL-2 2.5 ng/mL) [18] | 1.13
KHYG-1 (IL-2 2.5 ng/mL) [19] | 13.4
NK-92 (IL-2 2.5 ng/mL) [20] | 0.89
NK-YS (IL-2 2.5 ng/mL) [21] | 0
NKL (IL-2 2.5 ng/mL) [22] | 0.89
SNK-6 (IL-2 2.5 ng/mL) [23] | 0
YT (IL-2 2.5 ng/mL) [24] | 0.64
[15] | 0
[25] | 0
[26] | 3.85
[27] | 0.89
[28] | 0.89

Cn1c(=O)n(-c2ccc(C(C)(C)C#N)cc2)c2c3cc(-c4cnc5ccccc5c4)ccc3ncc21 [Dactolisib] (max concentration tested 1000 nM)
percent inhibition of viability [%]
Conditions | 0.1 nM | 1 nM | 10 nM | 100 nM | 1000 nM
DERL-7 (IL-2 2.5 ng/mL) [2] | 0.52 | 16 | 38.7 | 79.4 | 84.9
IMC-1 (IL-2 20 ng/mL) [3] | -8.09 | 0.4 | -15.1 | 8.63 | 56.9
KAI3 (IL-2 2.5 ng/mL) [4] | -4.23 | -6.61 | 24.4 | 68.8 | 75.8
KHYG-1 (IL-2 2.5 ng/mL) [5] | -4.3 | -5.69 | 3.3 | 74.9 | 90.8
NK-92 (IL-2 2.5 ng/mL) [6] | -5.17 | -0.09 | 27.1 | 63.9 | 70.8
NK-YS (IL-2 2.5 ng/mL) [7] | 0.2 | -0.12 | 24.7 | 63.3 | 82.3
NKL (IL-2 2.5 ng/mL) [8] | -13.1 | -9.35 | 36.5 | 69.7 | 76.1
SNK-6 (IL-2 2.5 ng/mL) [9] | -7.98 | -26.8 | 2.13 | 46.8 | 52.4
YT (IL-2 2.5 ng/mL) [10] | -3.01 | -5.11 | 15.7 | 57.6 | 80.4
[1] | -4.3 | -1.75 | 17.1 | 38.2 | 57.6
[11] | -5.56 | 16 | 21.4 | 45 | 38.5
[12] | -1.73 | 24 | 24.7 | 38.7 | 40.6
[13] | -5.46 | 9.09 | 17.1 | 37.6 | 57.4
[14] | -3.41 | 6.19 | 15.4 | 16.5 | 43.5

Conditions | drug sensitivity score
DERL-7 (IL-2 2.5 ng/mL) [16] | 19.6
IMC-1 (IL-2 20 ng/mL) [17] | 4.51
KAI3 (IL-2 2.5 ng/mL) [18] | 15.9
KHYG-1 (IL-2 2.5 ng/mL) [19] | 14.2
NK-92 (IL-2 2.5 ng/mL) [20] | 15.2
NK-YS (IL-2 2.5 ng/mL) [21] | 14.8
NKL (IL-2 2.5 ng/mL) [22] | 18.6
SNK-6 (IL-2 2.5 ng/mL) [23] | 8.78
YT (IL-2 2.5 ng/mL) [24] | 12.7
[15] | 8.96
[25] | 10.6
[26] | 11.8
[27] | 9.12
[28] | 4.8
